Data taken from the supplement of paper PMC10307832.

Columns and labels:
Experiment in all cases: relative viability (nuclei count vs DMSO), 5 days (fraction); higher = more cells survive
[1] = compound: CC1=CC(=NN1)NC2=CC(=NC(=N2)/C=C/C3=CC=CC=C3)N4CCN(CC4)C + COc1cc2c(Oc3ccc(NC(=O)C4(C(=O)Nc5ccc(F)cc5)CC4)cc3F)ccnc2cc1OCCCN1CCOCC1 [Foretinib] (partner 0.25 µM)
In short: (§1)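 Values are medians from duplicate plates. Each reflects relative viability, defined as the nuclei count of treated wells over that of vehicle wells. Lung cancer cell lines in 1536-well plates were pin-tool dosed one day after seeding with one drug alone or with a fixed anchor-drug dose plus five library-drug doses (not always all listed) in √10 steps, then fixed, stained and imaged at 4× after 5 days.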

[2] = compound: CC1=CC(=NN1)NC2=CC(=NC(=N2)/C=C/C3=CC=CC=C3)N4CCN(CC4)C + Nc1nc2[nH]cc(CCc3ccc(C(=O)N[C@@H](CCC(=O)O)C(=O)O)cc3)c2c(=O)[nH]1 [Pemetrexed] (partner 0.2 µM)
In short: as §1

[3] = compound: CC1=CC(=NN1)NC2=CC(=NC(=N2)/C=C/C3=CC=CC=C3)N4CCN(CC4)C + CC1(C)CCC(c2ccc(Cl)cc2)=C(CN2CCN(c3ccc(C(=O)NS(=O)(=O)c4ccc(N[C@H](CCN5CCOCC5)CSc5ccccc5)c(S(=O)(=O)C(F)(F)F)c4)cc3)CC2)C1 [Navitoclax] (partner 0.5 µM)
In short: as §1

[4] = compound: CC1=CC(=NN1)NC2=CC(=NC(=N2)/C=C/C3=CC=CC=C3)N4CCN(CC4)C + O=C(CCCCCCC(=O)Nc1ccccc1)NO [Vorinostat] (partner 1 µM)
In short: as §1

Row | Cell Line | relative viability ([1]; first compound 0.08 µM) | relative viability ([1]; first compound 0.253 µM) | relative viability ([1]; first compound 0.8 µM) | relative viability ([1]; first compound 2.53 µM) | relative viability ([1]; first compound 8 µM) | relative viability ([2]; first compound 0.08 µM) | relative viability ([2]; first compound 0.253 µM) | relative viability ([2]; first compound 0.8 µM) | relative viability ([2]; first compound 2.53 µM) | relative viability ([2]; first compound 8 µM) | relative viability ([3]; first compound 0.08 µM) | relative viability ([3]; first compound 0.253 µM) | relative viability ([3]; first compound 0.8 µM) | relative viability ([3]; first compound 2.53 µM) | relative viability ([3]; first compound 8 µM) | relative viability ([4]; first compound 0.08 µM) | relative viability ([4]; first compound 0.253 µM) | relative viability ([4]; first compound 0.8 µM) | relative viability ([4]; first compound 2.53 µM) | relative viability ([4]; first compound 8 µM)
1 | LOU-NH91 | 0.94 | 0.976 | 0.912 | 0.848 | 0.507 | 0.383 | 0.389 | 0.391 | 0.394 | 0.361 | 0.706 | 0.729 | 0.697 | 0.387 | 0.201 | 0.954 | 0.935 | 0.941 | 0.594 | 0.41
2 | SK-MES-1 | 0.896 | 0.858 | 0.864 | 0.653 | 0.352 | 0.908 | 0.995 | 0.89 | 0.213 | 0.162 | 1.11 | 1.21 | 1.15 | 0.479 | 0.116 | 1.09 | 1.25 | 0.985 | 0.191 | 0.165
3 | LCLC-103H | 0.76 | 0.93 | 0.639 | 0.305 | 0.154 | 0.476 | 0.465 | 0.458 | 0.516 | 0.359 | – | – | – | – | – | 0.824 | 0.69 | 0.779 | 0.582 | 0.294
4 | NCI-H1915 | 1.01 | 1.13 | 1.06 | 0.817 | 0.386 | 0.523 | 0.553 | 0.452 | 0.37 | 0.137 | 0.762 | 0.8 | 0.779 | 0.539 | 0.213 | 0.493 | 0.584 | 0.467 | 0.376 | 0.116
5 | IA-LM | 1.07 | 1.05 | 0.906 | 0.601 | 0.103 | – | – | – | – | – | 0.733 | 0.76 | 1.12 | 0.669 | 0.148 | 1.02 | 1.12 | 0.874 | 0.887 | 0.332
6 | NCI-H1734 | 0.816 | 0.828 | 0.815 | 0.447 | 0.161 | 0.409 | 0.384 | 0.409 | 0.238 | 0.199 | 0.837 | 0.81 | 0.8 | 0.331 | 0.108 | 0.745 | 0.757 | 0.694 | 0.22 | 0.187
7 | NCI-H2170 | 1.02 | 0.981 | 0.95 | 0.774 | 0.183 | 0.266 | 0.246 | 0.248 | 0.193 | 0.181 | 0.588 | 0.574 | 0.619 | 0.248 | 0.159 | 0.867 | 0.921 | 0.65 | 0.211 | 0.153
8 | Calu-6 | 0.879 | 0.942 | 0.519 | 0.167 | 0.0898 | – | – | – | – | – | 0.765 | 0.623 | 0.523 | 0.0678 | 0.0602 | – | – | – | – | –
9 | HCC-15 | 1.06 | 1.11 | 0.839 | 0.196 | 0.0908 | 0.244 | 0.22 | 0.225 | 0.192 | 0.113 | 0.67 | 0.731 | 0.612 | 0.409 | 0.118 | 0.861 | 0.875 | 0.887 | 0.526 | 0.114
10 | SK-LU-1 | 0.756 | 0.821 | 0.671 | 0.177 | 0.0847 | 1 | 0.943 | 0.933 | 0.372 | 0.127 | 0.792 | 0.905 | 0.786 | 0.385 | 0.0813 | 0.721 | 0.805 | 0.672 | 0.323 | 0.107
11 | NCI-H2023 | 0.719 | 0.974 | 0.832 | 0.362 | 0.0501 | 0.214 | 0.283 | 0.198 | 0.117 | 0.0581 | 0.952 | 1.09 | 0.874 | 0.387 | 0.069 | 0.586 | 0.781 | 0.319 | 0.0637 | 0.0403
12 | NCI-H661 | 0.997 | – | 1.01 | 0.576 | 0.362 | 0.884 | 0.898 | 0.855 | 0.576 | 0.326 | – | – | – | – | – | 0.784 | 0.854 | 0.562 | 0.348 | 0.311
13 | NCI-H1648 | – | – | – | – | – | 0.689 | 0.803 | 0.836 | 0.745 | 0.47 | – | – | – | – | – | 0.437 | 0.488 | 0.666 | 0.346 | 0.203
14 | NCI-H358 | 0.705 | 0.886 | 0.307 | 0.145 | 0.0554 | 0.163 | 0.172 | 0.173 | 0.128 | 0.0753 | – | – | – | – | – | 0.587 | 0.756 | 0.178 | 0.116 | 0.0712
15 | NCI-H1623 | 0.817 | 0.94 | 0.886 | 0.803 | 0.533 | – | – | – | – | – | – | – | – | – | – | – | – | – | – | –
16 | NCI-H1299 | 1.04 | 1.06 | 1.1 | 0.4 | 0.186 | – | – | – | – | – | 1.04 | 1.13 | 1.03 | 0.863 | 0.243 | – | – | – | – | –
17 | NCI-H522 | – | – | – | – | – | 0.992 | 0.848 | 0.957 | 0.894 | 0.622 | – | – | – | – | – | 0.894 | 0.93 | 1.12 | 0.854 | 0.426
18 | NCI-H2342 | 0.918 | 1.06 | 1.14 | 1.01 | 0.578 | 0.642 | 0.81 | 0.819 | 0.769 | 0.473 | – | – | – | – | – | 0.685 | 0.765 | 0.698 | 0.722 | 0.312
19 | SW 900 | 0.845 | 0.831 | 0.871 | 0.605 | 0.118 | 0.469 | 0.491 | 0.49 | 0.407 | 0.102 | – | – | – | – | – | 0.388 | 0.623 | 0.535 | 0.211 | 0.0757
20 | NCI-H1703 | 0.331 | 0.362 | 0.291 | 0.209 | 0.211 | – | – | – | – | – | 0.929 | 0.965 | 0.283 | 0.134 | 0.108 | – | – | – | – | –
21 | ABC-1 | 1.01 | 1.13 | 0.956 | 0.195 | 0.228 | – | – | – | – | – | – | – | – | – | – | 1.01 | 1.19 | 1.31 | 0.392 | 0.225
